Where two headings read alike, the source gives them in different places.
Key:
ETA [1] = molecular target: T1, ETA (Homo sapiens, UniProt P25101); experiment: ETA affinity reported by Riechers et al (1996); type: binding; details: calculated from the Riechers et al (1996) data
T1 sequence (P25101 21-427): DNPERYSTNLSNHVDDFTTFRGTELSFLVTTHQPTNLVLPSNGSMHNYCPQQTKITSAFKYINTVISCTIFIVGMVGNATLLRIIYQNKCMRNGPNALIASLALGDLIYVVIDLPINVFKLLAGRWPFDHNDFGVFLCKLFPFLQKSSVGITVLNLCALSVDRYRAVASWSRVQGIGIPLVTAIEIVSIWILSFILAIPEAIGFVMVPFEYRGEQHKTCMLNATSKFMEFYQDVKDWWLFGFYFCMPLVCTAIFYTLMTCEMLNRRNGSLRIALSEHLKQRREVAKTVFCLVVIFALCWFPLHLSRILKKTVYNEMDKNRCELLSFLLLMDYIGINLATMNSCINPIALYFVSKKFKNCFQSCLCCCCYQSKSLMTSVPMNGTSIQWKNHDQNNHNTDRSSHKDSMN

hyperglycemic rats = details: type 2 diabetes model; cited from earlier work
[2] = test system: rat model of insulin resistance; details: rats, 5 mg/kg/day, cited from earlier work
ETA [3] = molecular target: T1, ETA; details: Lip (2001); cited from earlier work
[4] = test system: rats with streptozotocin-induced diabetes; details: 100 mg/kg/day; cited from earlier work
[5] = test system: streptozotocin-induced diabetes in rats; details: 100 mg/kg/day; cited from earlier work
obese mice = details: 50 mg/kg/day; cited from earlier work
moderate hypertension = details: patients, 10 to 100 mg/day, by comparison with placebo; cited from earlier work
resistant hypertension = details: Myogen news release Aug. 18, 2005; cited from earlier work
ETA [6] = molecular target: T1, ETA; experiment: 125I-endothelin-1 receptor binding cold ligand competition, steady-state, human myocardial membranes; design: human myocardial membranes prepared from failing and non-failing left ventricles; from tissue; host or cells: human left-ventricular myocardium (failing and non-failing), membrane preparation; details: mean of 8 assays

## COc1cc(OC)nc(OC(C(=O)O)C(OC)(c2ccccc2)c2ccccc2)n1 (racemic) [racemate, 2-(4,6-dimethoxypyrimidin-2-yloxy)-3-methoxy-3,3-diphenylpropionic acid]
ETA [1]
  selectivity Ki(ETB)/Ki(ETA): about 62

## COC(c1ccccc1)(c1ccccc1)[C@H](Oc1nc(C)cc(C)n1)C(=O)O [BSF 208075]
Hyperglycemic rats
  plasma glucose levels: reduced

## CCCCN(CCCC)C(=O)CN1C[C@H](c2ccc3c(c2)OCO3)[C@@H](C(=O)O)[C@@H]1c1ccc(OC)cc1 [atrasentan]
[2]; meal tolerance test
  ΔAUC for glucose: significantly reduce
  ΔAUC for glucose-insulin index: significantly reduce
  ΔAUC for insulin: significantly reduce
[2]
  3-hour fasting glucose level: not
  3-hour fasting insulin level: significantly reduce

## COc1cc(OC)nc(O[C@H](C(=O)O)C(OC)(c2ccccc2)c2ccccc2)n1 [darusentan, (+)-(S)-2-[(4,6-dimethoxy-2-pyrimidinyl)oxy]-3-methoxy-3,3-diphenylpropionic acid]
ETA [3]
  selectivity Ki(ETB)/Ki(ETA): about 160
[4]
  glomerular matrix protein deposition: normalized
  serum glucose concentrations: neither compound was found to influence
[5]
  plasma glucose levels: unaffected
  renal effects of streptozotocin-induced diabetes, including increased glomerular diameter and deposition of eosinophilic material within the glomeruli: partially or fully reversed
Obese mice
  increase in body weight: completely prevented
Moderate hypertension
  DBP: significantly reduce
  SBP: significantly reduce
Resistant hypertension
  results of clinical trial DAR-201: positive results
ETA [6]
  Ki(ETB)/Ki(ETA): 1181±148

Source: patent US9592231B2, “Therapy for complications of diabetes” (AbbVie Deutschland GmbH & Co. KG, priority 2007, dated 2017)
